# Counter-ions that a name gives are not always drawn.
# What was measured:
# [1] = tested on: HeLa S-3 human cervical carcinoma cell line; experiment: HeLa GI50 determination (SRB); type: cell-based; details: Homo sapiens, HeLa S3, 48 h; HeLa S-3, 2 days of treatment, SRB; read-out: HeLa Cells GI50
# Protocol: Growth inhibition (GI50) values were measured on the human cervical carcinoma cell line, HeLa S-3, which were selected for growth on plastic. The HeLa cell assay was based on the description of Skehan et al., J. Natl. Cancer Inst., 82:1107-12 (1990), which is hereby incorporated by reference in its entirety. HeLa cells were plated at 2×10^4 cells/well in 96 well plates. One day later, a control plate was fixed by the addition of TCA to 5%. After five rinses with tap water, the plate was air-dried and stored at 4° C. Test compounds were added to the remaining plates at 10-fold dilutions. Two days later, all plates were fixed as described above. Cells were then stained by the addition of 100 μL per well of 0.4% sulforhodamine B (SRB) in 1% acetic acid for 30 min at 4° C. Wells were then quickly rinsed 5× with 1% acetic acid and allowed to air dry. The SRB was then solubilized by the addition of 100 μL per well of unbuffered 10 mM Tris base. Dye was quantified by measuring absorbance at 490 nm on a Molecular Devices microplate reader. Growth inhibition was calculated according to the following equation: GI=100×(T−T0)/(C−T0), where the optical density (OD) of the test well after 2 days of treatment was T, the OD of the wells in the control plate on day 0 was T0 and C was the OD of untreated wells. Plots of percent growth inhibition versus inhibitor concentration were used to determine the GI50.
# [2] = tested on: MCF-7 human breast carcinoma line; experiment: MCF-7 GI50 determination (crystal violet); type: cell-based; details: Homo sapiens, MCF7, 96 h; MCF-7, 4 days of treatment, crystal violet; read-out: MCF-7 Cells GI50
# Protocol: Growth inhibition (GI50) values were measured on the human breast carcinoma line, MCF-7. MCF-7 cells were plated at 2×10^4 cells/well in 96 well plates and grown for 24 hours in drug free media. On day 2, test compounds were added to the plates at 10-fold dilutions. Four days later, cells were fixed by the addition of glutaraldehyde to 0.75%. After 30 min, the fixed cells were extensively rinsed with distilled water and dried at room temperature for one hour. The cells were then stained with a 0.2% crystal violet solution for one hour at room temperature. Unbound stain was removed by ten rinses with tap water and plates were allowed to air dry for 30 min. The crystal violet was then solubilized by the addition of 10% acetic acid for 15 min and quantified by measuring absorbance at 570 nm on a Molecular Devices microplate reader. Growth inhibition was calculated according to the following equation: GI=[…], where the optical density (OD) of the test well after 4 days of treatment was T, the OD of the wells in the control plate on day 0 was T0. Plots of percent growth inhibition versus inhibitor concentration were used to determine the GI50.
SMILES,GI50 [1],GI50 [2],melting point
"CCC1=C[C@H]2CN(C1)Cc1c([nH]c3ccc(Nc4ccc(OC)cc4)cc13)[C@@](C(=O)OC)(c1cc3c(cc1OC)N(C)[C@H]1[C@@](O)(C(=O)OC)[C@H](OC(C)=O)C4C(CC)=CCN5CC[C@]31[C@H]45)C2 (some centres unmarked) [Example 36, 11′-(4-methoxyphenylamino)vinorelbine]",300 nM,400 nM,–
"CCC1=C[C@H]2CN(C1)Cc1c([nH]c3ccc([S+]([O-])CCCO)cc13)[C@@](C(=O)OC)(c1cc3c(cc1OC)N(C)[C@H]1[C@@](O)(C(=O)OC)[C@H](OC(C)=O)C4C(CC)=CCN5CC[C@]31[C@H]45)C2 (some centres unmarked) [Example 20, 11′-(3-hydroxypropylsulfinyl)vinorelbine]",40 nM,300 nM,–
"CCC1=C[C@H]2CN(C1)Cc1c([nH]c3ccc(-c4c(C)noc4C)cc13)[C@@](C(=O)OC)(c1cc3c(cc1OC)N(C)[C@H]1[C@@](O)(C(=O)OC)[C@H](OC(C)=O)C4C(CC)=CCN5CC[C@]31[C@H]45)C2 (some centres unmarked) [Example 32, 11′-(3,5-dimethylisoxazol-4yl)vinorelbine]",300 nM,400 nM,–
"CCC1=C[C@H]2CN(C1)Cc1c([nH]c3ccc(Sc4cccc(O)c4)cc13)[C@@](C(=O)OC)(c1cc3c(cc1OC)N(C)[C@H]1[C@@](O)(C(=O)OC)[C@H](OC(C)=O)C4C(CC)=CCN5CC[C@]31[C@H]45)C2 (some centres unmarked) [Example 18, 11′-(3-hydroxyphenysulfanyl)vinorelbine]",30 nM,300 nM,–
"CCC1=C[C@H]2CN(C1)Cc1c([nH]c3ccc(Sc4ccccc4)cc13)[C@@](C(=O)OC)(c1cc3c(cc1OC)N(C)[C@H]1[C@@](O)(C(=O)OC)[C@H](OC(C)=O)C4C(CC)=CCN5CC[C@]31[C@H]45)C2 (some centres unmarked) [Example 17, 11′-(phenysulfanyl) vinorelbine]",20 nM,300 nM,–
"CCC1=C[C@H]2CN(C1)Cc1c([nH]c3ccc(C#CCOC)cc13)[C@@](C(=O)OC)(c1cc3c(cc1OC)N(C)[C@H]1[C@@](O)(C(=O)OC)[C@H](OC(C)=O)C4C(CC)=CCN5CC[C@]31[C@H]45)C2 (some centres unmarked) [Example 24, 11′-(3-methoxypropynyl)vinorelbine]",100 nM,300 nM,–
"CCC1=C[C@H]2CN(C1)Cc1c([nH]c3ccc(S)cc13)[C@@](C(=O)OC)(c1cc3c(cc1OC)N(C)[C@H]1[C@@](O)(C(=O)OC)[C@H](OC(C)=O)C4C(CC)=CCN5CC[C@]31[C@H]45)C2 (some centres unmarked) [Example 8, 11′-thiovinorelbine]",40 nM,60 nM,–
"CCC1=C[C@H]2CN(C1)Cc1c([nH]c3ccc(SCc4ccccc4F)cc13)[C@@](C(=O)OC)(c1cc3c(cc1OC)N(C)[C@H]1[C@@](O)(C(=O)OC)[C@H](OC(C)=O)C4C(CC)=CCN5CC[C@]31[C@H]45)C2 (some centres unmarked) [Example 15, 11′-(2-fluorobenzylsulfanyl)vinorelbine]",200 nM,400 nM,–
"CCC1=C[C@H]2CN(C1)Cc1c([nH]c3ccc(C#CCC(C)C)cc13)[C@@](C(=O)OC)(c1cc3c(cc1OC)N(C)[C@H]1[C@@](O)(C(=O)OC)[C@H](OC(C)=O)C4C(CC)=CCN5CC[C@]31[C@H]45)C2 (some centres unmarked) [Example 23, 11′-(4-methylpentynyl) vinorelbine]",300 nM,300 nM,–
"CCC1=C[C@H]2CN(C1)Cc1c([nH]c3ccc(C#N)cc13)[C@@](C(=O)OC)(c1cc3c(cc1OC)N(C)[C@H]1[C@@](O)(C(=O)OC)[C@H](OC(C)=O)C4C(CC)=CCN5CC[C@]31[C@H]45)C2 (some centres unmarked) [Example 25, 11′-cyanovinorelbine]",1 nM,6 nM,–
"CCC1=C[C@H]2CN(C1)Cc1c([nH]c3ccc(SCCC(=O)OC)cc13)[C@@](C(=O)OC)(c1cc3c(cc1OC)N(C)[C@H]1[C@@](O)(C(=O)OC)[C@H](OC(C)=O)C4C(CC)=CCN5CC[C@]31[C@H]45)C2 (some centres unmarked) (as salt: tartrate) [Example 7, 11′-(methoxycarbonylethylsulfanyl) vinorelbine]",–,–,140 to 170 °C (dec.)
"CCC1=C[C@H]2CN(C1)Cc1c([nH]c3ccc(C(=O)OC)cc13)[C@@](C(=O)OC)(c1cc3c(cc1OC)N(C)[C@H]1[C@@](O)(C(=O)OC)[C@H](OC(C)=O)C4C(CC)=CCN5CC[C@]31[C@H]45)C2 (some centres unmarked) [Example 27, 11′-(methoxycarbonyl) vinorelbine]",30 nM,50 nM,–
